# In ChEMBL document CHEMBL1159042, “Discovery of N-aryl-9-oxo-9H-fluorene-1-carboxamides as a new series of apoptosis inducers using a cell- and caspase-based high-throughput screening assay. 2. Structure-activity relationships of the 9-oxo-9H-fluorene ring” (Bioorg Med Chem Lett, 2010):
# The source made the active and inactive calls. The rule behind the calls is not given here.
# What was measured:
# HCT-116 [1] = assay: Induction of apoptosis in human HCT116 cells assessed as caspase activation after 48 hrs by HTS assay; format: functional, cell-based; settings: HCT-116, 48 h
# T47D [2] = assay: Induction of apoptosis in human T47D cells assessed as caspase activation after 48 hrs by HTS assay; format: functional, cell-based
# SNU-398 [3] = assay: Induction of apoptosis in human SNU398 cells assessed as caspase activation after 48 hrs by HTS assay; format: functional, cell-based; settings: SNU-398, 48 h
# HCT-116 [4] = assay: Growth inhibition of human HCT116 cells after 48 hrs; format: functional; settings: HCT-116, 48 h
# SNU-398 [5] = assay: Ratio of drug to paclitaxel for induction of apoptosis in human SNU398 cells assessed as caspase activation after 48 hrs by HTS assay; format: functional
# HCT-116 [6] = assay: Ratio of drug to paclitaxel for induction of apoptosis in human HCT116 cells assessed as caspase activation after 48 hrs by HTS assay; format: functional
# [7] = Inhibition of tubulin polymerization at 2 uM
# SNU-398 [8] = assay: Ratio of drug to vinblastin for induction of apoptosis in human SNU398 cells assessed as caspase activation after 48 hrs by HTS assay; format: functional
# HCT-116 [9] = assay: Ratio of drug to vinblastin for induction of apoptosis in human HCT116 cells assessed as caspase activation after 48 hrs by HTS assay; format: functional
# SNU-398 [10] = assay: Growth inhibition of human SNU398 cells after 48 hrs; format: functional; settings: SNU-398, 48 h
# T47D [11] = assay: Growth inhibition of human T47D cells after 48 hrs; format: functional
# T47D [12] = assay: Ratio of drug to vinblastin for induction of apoptosis in human T47D cells assessed as caspase activation after 48 hrs by HTS assay; format: functional
# [13] = Inhibition of tubulin polymerization at 3 uM
# [14] = Inhibition of tubulin polymerization at 0.5 uM
# T47D [15] = assay: Ratio of drug to paclitaxel for induction of apoptosis in human T47D cells assessed as caspase activation after 48 hrs by HTS assay; format: functional
# T47D [16] = assay: Induction of apoptosis in human T47D cells assessed as accumulation at G1 phase at 2 uM after 24 hrs by propidium iodide-based flow cytometry; format: functional
# T47D [17] = assay: Induction of apoptosis in human T47D cells assessed as accumulation at S phase at 2 uM after 48 hrs by propidium iodide-based flow cytometry; format: functional
# T47D [18] = assay: Induction of apoptosis in human T47D cells assessed as accumulation at sub G1 phase at 2 uM after 24 hrs by propidium iodide-based flow cytometry; format: functional
# T47D [19] = assay: Induction of apoptosis in human T47D cells assessed as accumulation at G2M phase at 2 uM after 24 hrs by propidium iodide-based flow cytometry; format: functional
# T47D [20] = assay: Induction of apoptosis in human T47D cells assessed as accumulation at sub G1 phase at 2 uM after 48 hrs by propidium iodide-based flow cytometry; format: functional
# T47D [21] = assay: Induction of apoptosis in human T47D cells assessed as accumulation at G2M phase at 2 uM after 48 hrs by propidium iodide-based flow cytometry; format: functional
# T47D [22] = assay: Induction of apoptosis in human T47D cells assessed as accumulation at S phase at 2 uM after 24 hrs by propidium iodide-based flow cytometry; format: functional
# T47D [23] = assay: Induction of apoptosis in human T47D cells assessed as accumulation at G1 phase at 2 uM after 48 hrs by propidium iodide-based flow cytometry; format: functional
Structure (SMILES),EC50 (HCT-116 [1]) [nM],EC50 (T47D [2]) [nM],EC50 (SNU-398 [3]) [nM],also measured
O=C(Nc1ccccc1-n1cccn1)c1ccccc1C(=O)c1ccccc1,> 10000,> 10000,> 10000,
O=C(Nc1ccccc1-n1cccn1)c1cccc2c1OCC2,> 10000,> 10000,> 10000,
[N-]=[N+]=Nc1ccc2c(c1)C(=O)c1c(C(=O)Nc3ccccc3-n3cccn3)cccc1-2,290,470,150,
O=C(Nc1ccccc1-n1cccn1)c1cccc2c1sc1ccccc12,2200,2100,1500,
O=C(Nc1ccccc1-n1cccn1)c1cccc2c1C(=O)c1cc([N+](=O)[O-])ccc1-2,220,290,150,GI50 (HCT-116 [4]): 420 nM; Ratio (SNU-398 [5]): <10; Ratio (HCT-116 [6]): <10; inhibition [7]: 50%; Ratio (SNU-398 [8]): <10; Ratio (HCT-116 [9]): <10; GI50 (SNU-398 [10]): 72 nM; GI50 (T47D [11]): 110 nM; Ratio (T47D [12]): <10; inhibition [13]: 50%; inhibition [14]: Active; Ratio (T47D [15]): <10
Cc1cccc(NC(=O)c2cccc3c2Cc2ccccc2-3)c1C,> 10000,> 10000,> 10000,
O=C(Nc1ccccc1-n1cccn1)c1cccc2c1oc1ccccc12,> 10000,> 10000,> 10000,
Cc1ccc(NC(=O)c2cccc3c2Cc2ccccc2-3)c(C)c1,> 10000,> 10000,> 10000,
CC(=O)O[C@H]1C(=O)[C@@]2(C)[C@H]([C@H](OC(=O)c3ccccc3)[C@]3(O)C[C@H](OC(=O)[C@H](O)[C@@H](NC(=O)c4ccccc4)c4ccccc4)C(C)=C1C3(C)C)[C@]1(OC(C)=O)CO[C@@H]1C[C@@H]2O [PACLITAXEL],,,,GI50 (HCT-116 [4]): 60 nM; GI50 (SNU-398 [10]): 61 nM; GI50 (T47D [11]): 26 nM
O=C(Nc1ccccc1-n1cccn1)c1cccc2c1[nH]c1ccccc12,> 10000,> 10000,> 10000,
O=C(Nc1ccccc1-n1cc(Br)cn1)c1cccc2c1C(=O)c1cc([N+](=O)[O-])ccc1-2,1500,1300,1400,
O=C(Nc1ccccc1-n1cccn1)c1cccc2c1Cc1ccccc1-2,6200,3200,6900,
Cc1ccccc1NC(=O)c1cccc2c1Cc1ccccc1-2,> 10000,1700,> 10000,
CC[C@]1(O)C[C@@H]2CN(CCc3c([nH]c4ccccc34)[C@@](C(=O)OC)(c3cc4c(cc3OC)N(C)[C@H]3[C@@](O)(C(=O)OC)[C@H](OC(C)=O)[C@]5(CC)C=CCN6CC[C@]43[C@@H]65)C2)C1 [VINBLASTINE],,,,GI50 (HCT-116 [4]): 10 nM; GI50 (SNU-398 [10]): 5 nM; GI50 (T47D [11]): 7 nM
O=C(Nc1ccccc1-n1cccn1)c1cccc2c3ccccc3[s+]([O-])c12 (configuration not stated),> 10000,> 10000,> 10000,
Nc1ccc2c(c1)C(=O)c1c(C(=O)Nc3ccccc3-n3cccn3)cccc1-2,370,970,150,Activity (T47D [16]): 11%; Activity (T47D [17]): 10%; GI50 (HCT-116 [4]): 510 nM; Ratio (SNU-398 [5]): <10; Ratio (HCT-116 [6]): <10; inhibition [7]: 50%; Activity (T47D [18]): 12%; Ratio (SNU-398 [8]): <10; Activity (T47D [19]): 60%; Activity (T47D [20]): 50%; Activity (T47D [21]): 24%; Activity (T47D [22]): 14%; Activity (T47D [23]): 10%; Ratio (HCT-116 [9]): <10; GI50 (SNU-398 [10]): 84 nM; GI50 (T47D [11]): 150 nM; Ratio (T47D [12]): <10; inhibition [13]: 50%; inhibition [14]: Active; Ratio (T47D [15]): <10
O=C(Nc1ccccc1-n1cccn1)c1cccc2c1S(=O)(=O)c1ccccc1-2,> 10000,> 10000,480,
Cc1ccc(C)c(NC(=O)c2cccc3c2Cc2ccccc2-3)c1,> 10000,2400,> 10000,
Cc1ccccc1NC(=O)c1cccc2c1C(O)c1ccccc1-2 (configuration not stated),> 10000,3000,> 10000,
O=C(Nc1ccccc1-n1cccn1)c1cccc2c1C(=O)c1ccccc1-2,,,,GI50 (HCT-116 [4]): 1100 nM; GI50 (SNU-398 [10]): 780 nM; GI50 (T47D [11]): 160 nM
